What was measured:
Type in all cases: binding
[1] = system: human monoclonal antibody CR57
[2] = system: human monoclonal antibody CRJB
[3] = system: human monoclonal antibody CRJA
[4] = system: human monoclonal antibody CRJB; remark: listed apart in the source
[5] = system: human monoclonal antibody CR57; remark: listed apart in the source
[6] = system: human monoclonal antibody CRJA; remark: listed apart in the source

Sequence | Binding of CR57 to linear peptide (PEPSCAN-ELISA signal) [1] | Binding of CRJB (10 μg/ml) to looped/cyclic peptide (PEPSCAN-ELISA) [2] | Binding of CRJA (10 μg/ml) to looped/cyclic peptide (PEPSCAN-ELISA) [3] | Binding of CRJB to linear peptide (PEPSCAN-ELISA signal) [4] | Binding of CR57 (10 μg/ml) to looped/cyclic peptide (PEPSCAN-ELISA) [5] | Binding of CRJA to linear peptide (PEPSCAN-ELISA signal) [6] | Binding of CRJB (10 μg/ml) to looped/cyclic peptide (PEPSCAN-ELISA signal) [2] | Binding of CRJA (10 μg/ml) to looped/cyclic peptide (PEPSCAN-ELISA signal) [3] | Binding of CR57 (10 μg/ml) to looped/cyclic peptide (PEPSCAN-ELISA signal) [5] | further results
ERGLYKSLKGACKLK | 90 | 72 | 104 | 118 | 100 | 101 | – | – | – | –
DQLVNLHDFRSDEIE | 54 | 27 | 63 | 117 | 46 | 88 | – | – | – | –
VNGVFFNGIILGPDG | 68 | 96 | 78 | 116 | 90 | 94 | – | – | – | –
IEHLVVEELVRKREE | 90 | 112 | 112 | 129 | 103 | 100 | – | – | – | –
VDERGLYKSLKGACK | 50 | 80 | 96 | 108 | 105 | 82 | – | – | – | –
TFKRKHFRPTPDACR | 96 | – | – | 111 | – | 97 | 99 | 105 | 112 | –
LDALESIMTTKSVSF | 97 | 106 | 90 | 116 | 108 | 92 | – | – | – | –
LVVEELVRKREECLD | 64 | 76 | 50 | 100 | 68 | 65 | – | – | – | –
RVGGRCHPHVNGVFF | 86 | 104 | 117 | 143 | 107 | 93 | – | – | – | –
ESIMTTKSVSFRRLS | 62 | 92 | 49 | 111 | 80 | 61 | – | – | – | –
GVFFNGIILGPDGNV | 58 | 85 | 68 | 116 | 57 | 84 | – | – | – | –
LVVEDEGCTNLSGFS | 76 | – | – | 103 | – | 58 | 82 | 104 | 76 | –
ENPRLGMSCDIFTNS | 71 | – | – | 118 | – | 101 | 88 | 113 | 100 | –
CLRVGGRCHPHVNGV | 102 | 104 | 111 | 132 | 101 | 103 | – | – | – | –
PPDQLVNLHDFRSDE | 107 | 83 | 97 | 120 | 101 | 118 | – | – | – | –
WKMAGDPRYEESLHN | 69 | – | – | 101 | – | 86 | 77 | 90 | 96 | –
NQVSGVDLGLPNWGK | – | – | – | – | – | – | – | – | – | Binding of human monoclonal antibody CR57 to linear peptide (PEPSCAN-ELISA signal) [1]: 78; Binding of CRJB to looped/cyclic peptide (PEPSCAN-ELISA signal) [2]: 128; Binding of CRJA to looped/cyclic peptide (PEPSCAN-ELISA signal) [3]: 79; Binding of human monoclonal antibody CRJB to linear peptide (PEPSCAN-ELISA signal) [4]: 138; Binding of CR57 to looped/cyclic peptide (PEPSCAN-ELISA signal) [5]: 84; Binding of human monoclonal antibody CRJA to linear peptide (PEPSCAN-ELISA signal) [6]: 103
YTIFNKTLMEADAHY | 104 | 79 | 108 | 147 | 119 | 90 | – | – | – | –
EESLHNPYPDYRWLR | 76 | – | – | 123 | – | 85 | 85 | 100 | 121 | –
MPENPRLGMSCDIFT | 105 | – | – | 121 | – | 107 | 87 | 111 | 107 | –
LRTVKTTKESLVIIS | 65 | – | – | 104 | – | 83 | 68 | 86 | 89 | –
AYTIFNKTLMEADAH | 86 | 78 | 97 | 121 | 118 | 98 | – | – | – | –
ELLESSVIPLVHPLA | 90 | 88 | 73 | 133 | 112 | 85 | – | – | – | –
HLRKLVPGFGKAYTI | 99 | 93 | 120 | 111 | 118 | 116 | – | – | – | –
VKTTKESLVIISPSV | 71 | – | – | 120 | – | 96 | 92 | 100 | 98 | –
LRKLVPGFGKAYTIF | 83 | 105 | 87 | 118 | 92 | 116 | – | – | – | –
YDRSLHSRVFPSGKC | 364 | – | – | 818 | – | 1027 | 72 | 86 | 112 | binding of antibody CR57 to linear peptide (PEPSCAN OD) [1]: bound; binding of antibody CRJB to linear peptide (PEPSCAN OD) [4]: clearly bound; binding of antibody CRJA to linear peptide (PEPSCAN OD) [6]: clearly bound
DYRWLRTVKTTKESL | 54 | – | – | 111 | – | 55 | 49 | 45 | 46 | –
TLMEADAHYKSVRTW | 100 | 87 | 89 | 114 | 89 | 111 | – | – | – | –

From patent US20060263802A1 (priority 2003, published 2006)
